# Counter-ions that a name gives are not always drawn. Like-named read-outs stand apart in the source and are kept apart here.
# Experiments:
# [1] = tested on: Klebsiella pneumoniae PCI 602; test: MIC of the infecting strain, Table 2; type: cell-based; conditions: PCI602
# Description: (§1) The minimum growth inhibitory concentration (MIC) against various bacteria was measured in a bacterial count of 10^6 CFU/ml using medium SDA (NISSUI) in accordance with the Japan Chemotherapy Association.
# [2] = tested on: Escherichia coli No. 29; test: MIC of the infecting strain, Table 2; type: cell-based
# Description: as §1
# [3] = tested on: Pseudomonas aeruginosa GN10362; test: MIC of the infecting strain, Table 2; type: cell-based
# Description: as §1
# [4] = Acute toxicity test, Test Example 5; type: in vivo; conditions: mouse, in vivo, iv; ICR male mice, tail vein; 14 days
# Description: (§2) 75 mg of each test compound was dissolved in 0.4 ml of phuysiological saline. The solution was administered to the tail vein of ICR strain male mice (mean body weight of 25 g, 5 weeks old) of one group being 3 mice. Observation was made for 14 days.
# [5] = tested on: ICR strain male mice; test: Acute toxicity test, Test Example 5; type: in vivo; conditions: for survival: ICR male mice, 75 mg in 0.4 ml, tail vein, 14 days
# Description: as §2
# [6] = tested on: Staphylococcus epidermidis ATCC 14990; test: Minimum growth inhibitory concentration, Test Example 1; type: cell-based
# Description: as §1
# [7] = tested on: Escherichia coli 255; test: as above; type: cell-based; conditions: 10^6 CFU/ml, medium SDA
# Description: as §1
# [8] = tested on: Pseudomonas aeruginosa IAM-1007; test: as above; type: cell-based
# Description: as §1
# [9] = tested on: Escherichia coli W3630 RGN238; test: as above; type: cell-based; conditions: W3630RGN238, read-out: Minimum Growth Inhibitory Concentration MIC
# Description: as §1
# [10] = tested on: Citrobacter freundii GN346/16-10; test: as above; type: cell-based; conditions: GN346, read-out: Minimum Growth Inhibitory Concentration MIC
# Description: as §1
# [11] = tested on: Citrobacter freundii GN346; test: as above; type: cell-based
# Description: as §1
# [12] = tested on: Bacillus subtilis ATCC6633; test: as above; type: cell-based
# Description: as §1
# [13] = tested on: Staphylococcus aureus Smith (I); test: as above; type: cell-based; conditions: read-out: Minimum Growth Inhibitory Concentration MIC
# Description: as §1
# [14] = tested on: Pseudomonas aeruginosa M-0148; test: as above; type: cell-based
# Description: as §1
# [15] = tested on: Pseudomonas aeruginosa Ml Rms139; test: as above; type: cell-based; conditions: MLRMS139, read-out: Minimum Growth Inhibitory Concentration MIC
# Description: as §1
# [16] = tested on: Citrobacter freundii GN346/16; test: as above; type: cell-based
# Description: as §1
# [17] = tested on: Escherichia coli W3630 RGN823; test: as above; type: cell-based; conditions: W3630RGN823, read-out: Minimum Growth Inhibitory Concentration MIC
# Description: as §1
# [18] = tested on: Escherichia coli 255/S-1; test: as above; type: cell-based; conditions: 255/S1, 10^6 CFU/ml, medium SDA
# Description: as §1
# [19] = tested on: Escherichia coli GN206; test: Minimum growth inhibitory concentration; type: cell-based
# Description: as §1
# [20] = tested on: Klebsiella pneumoniae PCI 602; test: Effect to prevent infections in mice, Test Example 6; type: in vivo, ICR strain male mice; conditions: mouse, i.p. infection 6.5 × 10^4 CFU/mouse with mucin; s.c. one hour after; 7 days
# Description: (§3) The culture solution of each test bacterium was adjusted to a bacterial concentration shown in the table and then supplemented with 2.5% (W/V) of mucin. The solution was intraperitoneally administered to ICR strain male mice (mean body weight of 20 g, 4 weeks old) of one group being 8 at a dose of 0.5 ml to experimentally cause infection. Each test compound was subcutaneously administered one hour after (provided that in case of Pseudomonas aeruginosa was given one hour and 3 hours after). Observation was made for 7 days.
# [21] = tested on: Escherichia coli No. 29; test: as above; type: in vivo, ICR strain male mice; conditions: mouse, i.p. infection 2.3 × 10^5 CFU/mouse with mucin; s.c. one hour after; 7 days
# Description: as §3
# [22] = tested on: Escherichia coli GN206; test: as above; type: in vivo, ICR strain male mice; conditions: mouse, i.p. infection 9.5 × 10^6 CFU/mouse with mucin; s.c. one hour after; 7 days
# Description: as §3
# [23] = tested on: Pseudomonas aeruginosa GN10362; test: as above; type: in vivo, ICR strain male mice; conditions: mouse, i.p. infection 8.8 × 10^5 CFU/mouse with mucin; s.c. one hour and 3 hours after; 7 days
# Description: as §3
# [24] = Concentration in blood plasma (rat) and in serum (common marmoset), Test Examples 7 and 8; type: in vivo, SD strain male rats; female common marmosets; conditions: various animal tests
# Description: A test compound was dissolved in physiological saline in a concentration of 20 mg/ml. The solution was given in the tail vein of SD strain male rats (mean body weight of 325 g) of one group being 4 in a dose of 1 ml/kg. Blood was collected from the femoral artery in course of time and blood plasma was isolated from the blood. A concentration of the test compound in blood plasma was quantitatively assayed by high performance liquid chromatography. A test compound was dissolved in 0.05M phosphate buffer (pH 6.5) in a concentration of 2.0 mg/ml. The solution was intramuscularly administered to female common marmosets of one group being 2 in a dose of 5 ml/kg. Blood was collected from the femoral artery with passage of time and serum was separated from the blood followed by quantitative assay by bioassay using Escherichia coli K-12 HW 8236 as a bacterium for the assay.
# [25] = tested on: clinically isolated Klebsiella pneumoniae, Proteus vulgaris and Pseudomonas aeruginosa; test: Distribution in sensitivity of clinically isolated strains, Test Examples 2 to 4; type: cell-based; conditions: compared to known compounds
# Description: Each MIC of various bacteria clinically isolated from patients was measured in a manner similar to Test Example 1 and its percentage to the all strains to reach the inhibitory concentration was accumulatively expressed .
# Distribution in sensitivity to pneumobacilli clinically isolated.
# Distribution in sensitivity to variant clinically isolated.
# Distribution in sensitivity to Pseudomonas aeruginosa clinically isolated.
# [26] = tested on: Escherichia coli, pneumobacilli and Pseudomons aeruginosa; test: Effect to prevent infections, overall comparison with known compounds, Test Example 6; type: in vivo, ICR strain male mice; conditions: compared to the known compounds (CAZ, HR-810)
# Description: as §3
# [27] = Citrobacter freundii, GN346, read-out: Minimum Growth Inhibitory Concentration MIC
# [28] = Klebsiella pneumoniae PCI 602, Table 2, read-out: MIC
# [29] = ATCC14990, Staphylococcus epidermidis ATCC 14990, 10^6 CFU/ml, medium SDA, read-out: Minimum Growth Inhibitory Concentration MIC
# [30] = IAM1007, Pseudomonas aeruginosa IAM-1007, 10^6 CFU/ml, medium SDA, read-out: Minimum Growth Inhibitory Concentration MIC
# [31] = Citrobacter freundii GN346, 10^6 CFU/ml, medium SDA, read-out: Minimum Growth Inhibitory Concentration MIC
# [32] = Bacillus subtilis ATCC6633, 10^6 CFU/ml, medium SDA, read-out: Minimum Growth Inhibitory Concentration MIC
# [33] = Staphylococcus aureus Smith (I), 10^6 CFU/ml, medium SDA
# [34] = M0148, Pseudomonas aeruginosa M-0148, 10^6 CFU/ml, medium SDA, read-out: Minimum Growth Inhibitory Concentration MIC
# [35] = Citrobacter freundii GN346/16, 10^6 CFU/ml, medium SDA, read-out: Minimum Growth Inhibitory Concentration MIC
# [36] = Escherichia coli GN206, Table 1, 10^6 CFU/ml, medium SDA, read-out: Minimum Growth Inhibitory Concentration MIC
compound,measurement,setting,value
"CC(C)(ON=C(C(=O)NC1C(=O)N2C(C(=O)[O-])=C(C[n+]3ccccc3)CSC12)c1csc(N)n1)C(=O)O [CAZ, (6R, 7R)-7-[(Z)-2-(2-aminothiazol-4-yl)-2-(2-methylcarboxyisoprop;oxyimino)acetamido]-3-pyridinium-1-ylmethyl-ceph-3-em-4-carboxylate]",MIC,[1]; Klebsiella pneumoniae,0.2 µg/mL
same,MIC,[2],0.2 µg/mL
same,MIC,"[3]; Pseudomonas aeruginosa, GN10362",1.56 µg/mL
same,LD50 at 336 h,[4],≥ 4000 mg/kg
same,survival,[5],survived
same,MIC,"[6]; Staphylococcus epidermidis, ATCC14990, read-out: Minimum Growth Inhibitory Concentration MIC",3.13 µg/mL
same,MIC,[7],12.5 µg/mL
same,MIC,"[8]; Pseudomonas aeruginosa, IAM1007, read-out: Minimum Growth Inhibitory Concentration MIC",0.78 µg/mL
same,MIC,[9],0.2 µg/mL
same,MIC,[10],25 µg/mL
same,MIC,[11]; [27],25 µg/mL
same,MIC,"[12]; Bacillus subtilis, ATCC6633, read-out: Minimum Growth Inhibitory Concentration MIC",3.13 µg/mL
same,MIC,[13]; Staphylococcus aureus,3.13 µg/mL
same,MIC,"[14]; Pseudomonas aeruginosa, M0148, read-out: Minimum Growth Inhibitory Concentration MIC",1.56 µg/mL
same,MIC,[15],0.78 µg/mL
same,MIC,[16]; [27],0.78 µg/mL
same,MIC,[17],0.2 µg/mL
same,MIC,[18],0.39 µg/mL
same,MIC,"[19]; Escherichia coli, GN206",1.56 µg/mL
same,MIC,"[19]; Escherichia coli, GN206, read-out: Minimum Growth Inhibitory Concentration MIC",1.56 µg/mL
same,ED50 (preventive effect),[20],0.57 mg/mouse
same,ED50 (preventive effect),[21],0.006 mg/mouse
same,ED50 (preventive effect),[22],1.0 mg/mouse
same,ED50 (preventive effect),[23],8 mg/mouse
"CC[n+]1ccc(SCC2=C(C(=O)[O-])N3C(=O)[C@@H](NC(=O)/C(=N\O[C@@H](C)C(=O)O)c4csc(N)n4)[C@H]3SC2)cc1 [Compound I, (6R, 7R)-7-[(Z)-2-(2-aminothiazol-4-yl)-2-{(1S)-carboxyethoxyimino}acetamido]-3-(1-ethylpyridinium-4-ylthiomethyl)-ceph-3-em-4-carboxylate monosodium salt]",MIC,[1]; [28],0.05 µg/mL
same,MIC,[2],0.1 µg/mL
same,MIC,"[3]; Pseudomonas aeruginosa GN10362, Table 2, read-out: MIC",1.56 µg/mL
same,LD50 at 336 h,[4],≥ 4000 mg/kg
same,survival,[5],survived
same,toxicity (in words),[5]; various animal tests,low toxicity
same,MIC,[6]; [29],3.13 µg/mL
same,MIC,[7],0.2 µg/mL
same,MIC,[8]; [30],0.78 µg/mL
same,MIC,[9],0.2 µg/mL
same,MIC,[11]; [31],6.25 µg/mL
same,MIC,[12]; [32],3.13 µg/mL
same,MIC,[13]; [33],1.56 µg/mL
same,MIC,[14]; [34],0.78 µg/mL
same,MIC,[15],0.78 µg/mL
same,MIC,[16]; [35],0.39 µg/mL
same,MIC,[17],0.05 µg/mL
same,MIC,[18],0.1 µg/mL
same,durability in a concentration to exhibit the antibacterial activity (in words),[24],sufficient durability in a concentration to exhibit the antibacterial activity
same,transfer into blood and organ (in words),[24],rapidly transferred into blood and organ
same,distribution in sensitivity to clinically isolated strains (in words),[25],much more excellent antibacterial activity over a wide range
same,MIC,[19]; [36],0.1 µg/mL
same,MIC,"[19]; Escherichia coli GN206, Table 2, read-out: MIC",0.2 µg/mL
same,ED50 (preventive effect),[20],0.33 mg/mouse
same,ED50 (preventive effect),[21],0.002 mg/mouse
same,ED50 (preventive effect),[22],0.36 mg/mouse
same,ED50 (preventive effect),[23],4.5 mg/mouse
same,effect to prevent infections compared to the known compounds (in words),[26],equal to or superior to them
"CON=C(C(=O)NC1C(=O)N2C(C(=O)[O-])=C(C[n+]3cccc4c3CCC4)CSC12)c1csc(N)n1 [HR-810, (6R, 7R)-7-[(Z)-2-(2-aminothiazol-4-yl)-2-(methoxyimino)acetamido]-3-cyclopentenopyridinium-1-ylmethyl-ceph-3-em-4-carboxylate]",MIC,[1]; [28],0.05 µg/mL
same,MIC,[2],0.05 µg/mL
same,LD50 at 336 h,[4],≥ 4000 mg/kg
same,survival,[5],survived
same,MIC,[6]; [29],0.39 µg/mL
same,MIC,[7],0.2 µg/mL
same,MIC,[8]; [30],12.5 µg/mL
same,MIC,[9],0.78 µg/mL
same,MIC,[11]; [31],0.78 µg/mL
same,MIC,[12]; [32],0.1 µg/mL
same,MIC,[13]; [33],0.39 µg/mL
same,MIC,[14]; [34],12.5 µg/mL
same,MIC,[15],3.13 µg/mL
same,MIC,[16]; [35],0.05 µg/mL
same,MIC,[17],0.1 µg/mL
same,MIC,[18],0.05 µg/mL
same,MIC,[19]; [36],< 0.025 µg/mL
same,ED50 (preventive effect),[20],1.3 mg/mouse
same,ED50 (preventive effect),[21],0.006 mg/mouse

# Reference: patent US4810702A, “Antibacterial agent for mammal use comprising cephalosporin derivatives as an effective ingredient” (Meiji Seika Kaisha, Ltd., priority 1986, dated 1989)
